Assay in all cases: Kinase profiling
What all share (assay type): biochemical

For one experiment, the target named is T1, BMPR1B (Homo sapiens, UniProt O00238).
T1 construct: purchased ProQinase (Freiburg, Germany)
Here is the method:
(§1) The analysis was performed by ProQinase (Freiburg, Germany).

The target of the next experiment is T2, CAMKK2 (Homo sapiens, UniProt Q96RR4).
T2 construct: purchased ProQinase (Freiburg, Germany)
Here is the method: as §1

A further experiment concerns the target T3, CDC42BPB (Homo sapiens, UniProt Q9Y5S2).
T3 construct: purchased ProQinase (Freiburg, Germany)
Here is the method: as §1

The next experiment deals with T4, CDK13/CycK (Homo sapiens, UniProt Q14004).
T4 construct: purchased ProQinase (Freiburg, Germany)
T4 sequence (Q14004 whole entry): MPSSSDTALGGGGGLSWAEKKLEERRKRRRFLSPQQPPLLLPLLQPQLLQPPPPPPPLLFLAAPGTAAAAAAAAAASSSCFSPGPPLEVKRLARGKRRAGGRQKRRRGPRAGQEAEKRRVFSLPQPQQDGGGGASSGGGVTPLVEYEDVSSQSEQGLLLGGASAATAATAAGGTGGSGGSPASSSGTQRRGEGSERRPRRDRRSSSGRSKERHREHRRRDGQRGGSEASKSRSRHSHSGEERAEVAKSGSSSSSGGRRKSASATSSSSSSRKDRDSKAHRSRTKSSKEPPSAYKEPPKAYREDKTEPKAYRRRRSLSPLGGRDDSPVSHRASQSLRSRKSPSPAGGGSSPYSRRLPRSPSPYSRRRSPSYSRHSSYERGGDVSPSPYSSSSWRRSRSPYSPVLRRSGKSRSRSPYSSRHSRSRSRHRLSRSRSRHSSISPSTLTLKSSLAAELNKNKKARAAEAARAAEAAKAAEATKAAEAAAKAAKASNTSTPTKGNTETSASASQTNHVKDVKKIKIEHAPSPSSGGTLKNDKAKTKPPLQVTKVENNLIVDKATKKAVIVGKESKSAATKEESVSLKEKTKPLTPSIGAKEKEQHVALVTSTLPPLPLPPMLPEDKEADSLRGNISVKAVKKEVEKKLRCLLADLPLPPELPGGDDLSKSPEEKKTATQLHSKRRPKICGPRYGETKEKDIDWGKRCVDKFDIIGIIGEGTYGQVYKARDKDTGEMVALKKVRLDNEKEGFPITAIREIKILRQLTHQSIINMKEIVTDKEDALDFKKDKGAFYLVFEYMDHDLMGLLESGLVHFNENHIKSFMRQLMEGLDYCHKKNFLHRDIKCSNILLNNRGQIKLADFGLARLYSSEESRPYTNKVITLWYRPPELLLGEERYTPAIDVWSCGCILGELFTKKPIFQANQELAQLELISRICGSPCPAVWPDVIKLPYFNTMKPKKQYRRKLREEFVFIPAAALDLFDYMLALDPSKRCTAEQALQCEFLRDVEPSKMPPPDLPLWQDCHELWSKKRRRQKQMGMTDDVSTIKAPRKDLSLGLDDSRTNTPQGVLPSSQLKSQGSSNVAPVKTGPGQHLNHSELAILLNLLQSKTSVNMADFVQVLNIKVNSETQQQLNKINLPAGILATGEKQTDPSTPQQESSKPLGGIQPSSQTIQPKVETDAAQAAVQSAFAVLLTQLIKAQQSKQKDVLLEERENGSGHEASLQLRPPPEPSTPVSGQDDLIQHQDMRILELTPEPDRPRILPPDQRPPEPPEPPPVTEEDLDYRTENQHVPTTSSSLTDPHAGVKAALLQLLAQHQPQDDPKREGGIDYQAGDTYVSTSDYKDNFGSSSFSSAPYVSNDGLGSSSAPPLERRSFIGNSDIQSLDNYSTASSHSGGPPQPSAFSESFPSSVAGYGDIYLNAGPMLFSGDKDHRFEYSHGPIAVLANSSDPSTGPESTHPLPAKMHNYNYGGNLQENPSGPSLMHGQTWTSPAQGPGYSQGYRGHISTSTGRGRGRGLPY
T4 sequence (O75909 whole entry partner): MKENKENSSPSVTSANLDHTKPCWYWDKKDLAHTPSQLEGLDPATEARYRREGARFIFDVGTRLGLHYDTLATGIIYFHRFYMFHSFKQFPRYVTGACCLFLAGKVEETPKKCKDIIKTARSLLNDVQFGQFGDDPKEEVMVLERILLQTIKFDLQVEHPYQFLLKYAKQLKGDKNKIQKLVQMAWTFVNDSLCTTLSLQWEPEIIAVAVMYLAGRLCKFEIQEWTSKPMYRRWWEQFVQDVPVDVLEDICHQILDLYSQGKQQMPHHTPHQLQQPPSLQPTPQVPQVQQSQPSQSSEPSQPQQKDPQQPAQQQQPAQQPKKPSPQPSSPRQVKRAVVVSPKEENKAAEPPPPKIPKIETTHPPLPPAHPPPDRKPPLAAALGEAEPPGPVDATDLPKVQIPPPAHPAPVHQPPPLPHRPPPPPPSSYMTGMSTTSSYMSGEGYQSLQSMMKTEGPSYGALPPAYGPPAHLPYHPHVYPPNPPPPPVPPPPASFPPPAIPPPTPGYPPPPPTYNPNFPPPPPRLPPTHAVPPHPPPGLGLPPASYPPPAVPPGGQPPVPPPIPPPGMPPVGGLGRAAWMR
Here is the method: as §1

The target in the next experiment is T5, CHK1 (Homo sapiens, UniProt O14757).
T5 construct: purchased ProQinase (Freiburg, Germany)
T5 sequence (O14757 1-476): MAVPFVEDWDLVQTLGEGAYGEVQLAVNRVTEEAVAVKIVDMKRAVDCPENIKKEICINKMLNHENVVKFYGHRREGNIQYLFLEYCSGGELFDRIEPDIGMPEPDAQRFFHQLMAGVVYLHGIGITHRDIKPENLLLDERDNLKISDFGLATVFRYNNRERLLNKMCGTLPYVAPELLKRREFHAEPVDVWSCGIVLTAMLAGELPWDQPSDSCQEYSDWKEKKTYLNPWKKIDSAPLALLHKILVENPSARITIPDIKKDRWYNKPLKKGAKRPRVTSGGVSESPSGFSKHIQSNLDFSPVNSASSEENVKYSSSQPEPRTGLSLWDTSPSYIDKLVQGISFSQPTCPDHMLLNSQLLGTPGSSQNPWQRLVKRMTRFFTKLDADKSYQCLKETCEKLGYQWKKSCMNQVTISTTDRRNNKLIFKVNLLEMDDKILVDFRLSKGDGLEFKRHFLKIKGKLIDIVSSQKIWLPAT
As for the experimental part: as §1

Another experiment has as its target T6, DYRK3 (Homo sapiens, UniProt O43781).
T6 construct: purchased ProQinase (Freiburg, Germany)
T6 sequence (O43781 1-588): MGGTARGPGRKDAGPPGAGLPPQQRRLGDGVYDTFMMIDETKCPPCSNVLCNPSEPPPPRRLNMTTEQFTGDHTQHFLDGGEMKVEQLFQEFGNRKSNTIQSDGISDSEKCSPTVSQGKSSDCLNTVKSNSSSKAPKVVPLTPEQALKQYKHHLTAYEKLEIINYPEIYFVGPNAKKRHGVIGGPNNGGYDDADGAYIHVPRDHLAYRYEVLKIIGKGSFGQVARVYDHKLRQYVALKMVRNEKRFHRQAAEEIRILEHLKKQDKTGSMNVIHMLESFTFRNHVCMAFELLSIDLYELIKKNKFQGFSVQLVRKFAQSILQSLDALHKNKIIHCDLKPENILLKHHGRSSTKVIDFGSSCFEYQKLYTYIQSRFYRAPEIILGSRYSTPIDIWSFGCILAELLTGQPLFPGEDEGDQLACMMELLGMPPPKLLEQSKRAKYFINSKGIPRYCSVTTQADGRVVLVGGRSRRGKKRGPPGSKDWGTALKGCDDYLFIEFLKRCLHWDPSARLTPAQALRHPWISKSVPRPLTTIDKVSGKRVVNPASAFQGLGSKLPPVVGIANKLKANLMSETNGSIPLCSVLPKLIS
Here is the method: as §1

The next experiment deals with T7, MAP4K4 (Homo sapiens, UniProt O95819).
T7 construct: purchased ProQinase (Freiburg, Germany)
T7 sequence (O95819 whole entry): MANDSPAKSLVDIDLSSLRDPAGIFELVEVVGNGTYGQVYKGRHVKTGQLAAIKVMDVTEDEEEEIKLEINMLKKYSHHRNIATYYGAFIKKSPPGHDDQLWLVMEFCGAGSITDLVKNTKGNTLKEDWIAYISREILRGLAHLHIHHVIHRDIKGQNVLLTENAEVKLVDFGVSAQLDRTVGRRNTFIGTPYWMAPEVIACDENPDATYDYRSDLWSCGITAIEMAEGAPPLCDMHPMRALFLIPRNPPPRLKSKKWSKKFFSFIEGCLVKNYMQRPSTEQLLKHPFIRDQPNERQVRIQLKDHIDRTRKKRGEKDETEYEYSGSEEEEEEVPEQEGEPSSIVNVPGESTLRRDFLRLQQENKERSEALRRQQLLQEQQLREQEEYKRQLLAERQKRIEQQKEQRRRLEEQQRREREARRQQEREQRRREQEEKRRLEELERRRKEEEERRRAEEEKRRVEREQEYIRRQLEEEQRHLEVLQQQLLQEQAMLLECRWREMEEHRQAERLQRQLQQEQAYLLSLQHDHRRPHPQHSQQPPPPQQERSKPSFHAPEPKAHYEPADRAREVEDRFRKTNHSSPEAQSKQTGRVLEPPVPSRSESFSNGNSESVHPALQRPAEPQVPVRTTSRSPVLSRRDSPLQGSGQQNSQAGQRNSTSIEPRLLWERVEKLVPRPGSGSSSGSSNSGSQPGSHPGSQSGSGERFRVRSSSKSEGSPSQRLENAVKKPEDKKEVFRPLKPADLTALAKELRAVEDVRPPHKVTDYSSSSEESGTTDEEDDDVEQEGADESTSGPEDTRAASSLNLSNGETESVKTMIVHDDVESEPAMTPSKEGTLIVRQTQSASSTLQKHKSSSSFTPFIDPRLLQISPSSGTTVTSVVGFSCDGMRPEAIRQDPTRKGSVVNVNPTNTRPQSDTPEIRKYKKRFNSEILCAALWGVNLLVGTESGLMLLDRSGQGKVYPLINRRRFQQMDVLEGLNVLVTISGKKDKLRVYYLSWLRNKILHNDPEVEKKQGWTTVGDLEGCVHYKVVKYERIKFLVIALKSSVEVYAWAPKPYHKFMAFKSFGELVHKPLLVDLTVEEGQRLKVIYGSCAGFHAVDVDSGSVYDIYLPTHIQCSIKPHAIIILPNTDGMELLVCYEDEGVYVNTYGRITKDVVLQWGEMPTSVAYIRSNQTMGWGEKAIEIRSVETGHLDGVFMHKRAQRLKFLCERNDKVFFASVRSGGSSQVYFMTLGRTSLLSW
Here is the method: as §1

A further experiment concerns the target T8, TNK1 (Homo sapiens, UniProt Q13470).
T8 construct: purchased ProQinase (Freiburg, Germany)
T8 sequence (Q13470 1-666): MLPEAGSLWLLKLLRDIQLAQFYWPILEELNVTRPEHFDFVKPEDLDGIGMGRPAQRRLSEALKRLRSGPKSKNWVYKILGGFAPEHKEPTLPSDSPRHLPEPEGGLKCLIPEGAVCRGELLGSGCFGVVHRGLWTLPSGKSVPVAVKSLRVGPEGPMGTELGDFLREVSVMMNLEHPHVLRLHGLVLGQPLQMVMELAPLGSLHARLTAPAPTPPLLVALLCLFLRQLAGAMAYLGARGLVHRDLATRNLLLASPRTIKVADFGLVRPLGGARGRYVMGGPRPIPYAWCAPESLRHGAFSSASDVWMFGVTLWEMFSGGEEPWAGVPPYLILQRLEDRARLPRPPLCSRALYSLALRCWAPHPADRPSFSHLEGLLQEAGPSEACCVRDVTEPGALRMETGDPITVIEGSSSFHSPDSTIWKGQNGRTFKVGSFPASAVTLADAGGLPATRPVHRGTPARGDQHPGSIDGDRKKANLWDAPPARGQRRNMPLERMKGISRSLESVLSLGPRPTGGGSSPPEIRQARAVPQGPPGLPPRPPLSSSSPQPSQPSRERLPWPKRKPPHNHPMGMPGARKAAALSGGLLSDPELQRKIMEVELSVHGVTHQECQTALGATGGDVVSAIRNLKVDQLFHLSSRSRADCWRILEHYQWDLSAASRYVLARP
Here is the method: as §1

A further experiment deals with T9, VRK2 (Homo sapiens, UniProt Q86Y07).
T9 construct: purchased ProQinase (Freiburg, Germany)
T9 sequence (Q86Y07 whole entry): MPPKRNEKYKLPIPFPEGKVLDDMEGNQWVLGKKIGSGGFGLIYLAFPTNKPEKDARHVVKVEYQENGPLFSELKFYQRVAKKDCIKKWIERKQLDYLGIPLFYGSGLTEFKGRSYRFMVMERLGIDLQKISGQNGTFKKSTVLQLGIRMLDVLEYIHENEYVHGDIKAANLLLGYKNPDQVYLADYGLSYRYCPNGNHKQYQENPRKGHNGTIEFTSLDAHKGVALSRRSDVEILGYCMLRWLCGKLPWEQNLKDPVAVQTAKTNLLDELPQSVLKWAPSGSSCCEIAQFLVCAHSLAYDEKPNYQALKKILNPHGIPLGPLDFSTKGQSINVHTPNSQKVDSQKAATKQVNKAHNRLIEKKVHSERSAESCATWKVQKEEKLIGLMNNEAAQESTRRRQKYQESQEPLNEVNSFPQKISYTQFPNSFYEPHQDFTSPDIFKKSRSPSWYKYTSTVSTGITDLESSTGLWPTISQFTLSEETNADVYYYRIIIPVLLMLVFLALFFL
Here is the method:
as §1

The target of the next experiment is T10, WNK1 (Homo sapiens, UniProt Q9H4A3).
T10 construct: purchased ProQinase (Freiburg, Germany)
Here is the method:
as §1

T2 sequence (Q96RR4 whole entry): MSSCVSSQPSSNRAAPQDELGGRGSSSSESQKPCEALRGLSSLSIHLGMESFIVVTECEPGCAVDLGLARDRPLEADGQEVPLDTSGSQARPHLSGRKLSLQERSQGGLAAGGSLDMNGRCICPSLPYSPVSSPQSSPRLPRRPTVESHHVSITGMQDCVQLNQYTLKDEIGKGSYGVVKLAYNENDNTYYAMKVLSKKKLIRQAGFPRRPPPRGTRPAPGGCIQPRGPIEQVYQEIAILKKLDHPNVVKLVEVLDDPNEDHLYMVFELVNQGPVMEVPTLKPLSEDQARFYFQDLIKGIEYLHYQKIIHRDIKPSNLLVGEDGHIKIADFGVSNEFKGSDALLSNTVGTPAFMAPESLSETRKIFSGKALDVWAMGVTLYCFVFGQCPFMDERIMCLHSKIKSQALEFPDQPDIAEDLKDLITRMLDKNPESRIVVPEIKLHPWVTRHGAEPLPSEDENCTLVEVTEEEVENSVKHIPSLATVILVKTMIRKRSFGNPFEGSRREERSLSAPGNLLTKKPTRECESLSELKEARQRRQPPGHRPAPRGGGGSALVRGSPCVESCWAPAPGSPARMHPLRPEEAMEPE
T1 sequence (O00238 14-502): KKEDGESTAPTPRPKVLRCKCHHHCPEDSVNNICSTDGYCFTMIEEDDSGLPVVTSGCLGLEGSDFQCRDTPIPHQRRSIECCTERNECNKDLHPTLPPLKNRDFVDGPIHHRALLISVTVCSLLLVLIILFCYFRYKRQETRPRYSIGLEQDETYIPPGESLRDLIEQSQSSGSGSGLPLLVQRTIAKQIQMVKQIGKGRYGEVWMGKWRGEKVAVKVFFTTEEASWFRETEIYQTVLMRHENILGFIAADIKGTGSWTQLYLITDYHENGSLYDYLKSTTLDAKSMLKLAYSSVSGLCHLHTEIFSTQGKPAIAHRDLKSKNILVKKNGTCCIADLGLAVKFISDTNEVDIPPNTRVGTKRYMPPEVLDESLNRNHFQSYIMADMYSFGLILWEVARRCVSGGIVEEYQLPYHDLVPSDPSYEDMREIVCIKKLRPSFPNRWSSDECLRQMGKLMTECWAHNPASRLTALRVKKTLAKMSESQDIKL

Take `O=C(Nc1ccc(F)c(Nc2ccc3c(c2)CCCCC3=O)c1)c1cccc(F)c1` [Compound 109]: the Residual activity is 128 % of control at BMPR1B (1.0E-05 M); 101 % of control on BMPR1B (1.0E-06 M); 81 % of control on CAMKK2 (1.0E-05 M); 84 % of control on CAMKK2 (1.0E-06 M); 110 % of control on CDC42BPB (1.0E-05 M); 106 % of control at CDC42BPB (1.0E-06 M). Further, the Residual activity on CDK13/CycK (1.0E-05 M) is 92 % of control; on CDK13/CycK (1.0E-06 M), 88 % of control; on CHK1 (1.0E-05 M), 90 % of control; on CHK1 (1.0E-06 M), 88 % of control; at DYRK3 (1.0E-05 M), 88 % of control; at DYRK3 (1.0E-06 M), 96 % of control. Also, the Residual activity on MAP4K4 (1.0E-05 M) is recorded as 85 % of control; on MAP4K4 (1.0E-06 M) it was 94 % of control; on TNK1 (1.0E-05 M), 85 % of control; at TNK1 (1.0E-06 M), 89 % of control; at VRK2 (1.0E-05 M), 108 % of control; on VRK2 (1.0E-06 M), 107 % of control. Further, the figures for the Residual activity at WNK1 (1.0E-05 M) and at WNK1 (1.0E-06 M) were 94 % of control and 93 % of control, respectively.

For the molecule `O=C(Cc1ccccc1)Nc1ccc(F)c(Nc2ccc3c(c2)CCCCC3=O)c1` [Compound 100], the Residual activity at BMPR1B (1.0E-05 M) was 121 % of control; at BMPR1B (1.0E-06 M) it was 102 % of control; at CAMKK2 (1.0E-05 M), 95 % of control; on CAMKK2 (1.0E-06 M), 97 % of control; at CDC42BPB (1.0E-05 M) it was 107 % of control; at CDC42BPB (1.0E-06 M) it was 112 % of control. Also, the Residual activity at CDK13/CycK (1.0E-05 M) was 84 % of control; at CDK13/CycK (1.0E-06 M), 88 % of control; at CHK1 (1.0E-05 M) it was 91 % of control; on CHK1 (1.0E-06 M) it was 91 % of control; on DYRK3 (1.0E-05 M) it was 104 % of control; on DYRK3 (1.0E-06 M), 98 % of control. The Residual activity is recorded as 95 % of control on MAP4K4 (1.0E-05 M); 89 % of control on MAP4K4 (1.0E-06 M); 72 % of control on TNK1 (1.0E-05 M); 101 % of control on TNK1 (1.0E-06 M); 114 % of control on VRK2 (1.0E-05 M); 113 % of control at VRK2 (1.0E-06 M). Further, the Residual activity is on record as 97 % of control at WNK1 (1.0E-05 M) and 99 % of control on WNK1 (1.0E-06 M).

Source of the values: paper PMC9030254, “Target Hopping from Protein Kinases to PXR: Identification of Small-Molecule Protein Kinase Inhibitors as Selective Modulators of Pregnane X Receptor from TüKIC Library” (Cells, 2022).
